# Measured values: patent publication US20260078103A1, “ISOQUINOLONES AS PI3K INHIBITORS” (OnKure, Inc., priority 2022, published 2026)
# Like-named read-outs stand apart in the source and are kept apart here.
# How the values were obtained:
# Type in all cases: cell-based
# [1] = tested on: T47D cells expressing mutant PI3Ka (H1047R); assay: In vitro cell proliferation, T47D cells (CellTiter-Glo); details: inhibition of proliferation, read-out: Avg T-47D EC50
# Outline: (§1)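 1,500 cells/well seeded onto pre-stamped 10-pt dilution plates; T47D in RPMI + 10% FBS + insulin 0.2 units/mL, SKBR3 in McCoys 5a + 10% FBS. 72 h, 37 °C, 5% CO2. CTG readout. 0% = 0.1% DMSO, 100% = 10 uM Alpelisib; sigmoidal fit gives EC50.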
# [2] = tested on: phosphorylation of AKT (pAKT) in SKBR3 cells express WT PI3Ka; assay: In vitro cell pAKT (Ser473) HTRF, SKBR3 cells; details: cellular pAKT
# Outline: (§2)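 T47D cells (RPMI, 10% FBS, 0.2 units/mL insulin) or SKBR3 cells (McCoy's 5a, 10% FBS) were seeded onto 10-point compound dilutions and incubated 6 h at 37 °C. After lysis, pAKT was detected overnight by HTRF (Eu cryptate/d2). IC50 was fitted from % inhibition relative to 0.1% DMSO and 10 uM alpelisib controls.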
# [3] = tested on: SKBR3 cells express WT PI3Ka; assay: In vitro cell proliferation, SKBR3 cells (CellTiter-Glo); details: inhibition of proliferation
# Outline: as §1
# [4] = tested on: phosphorylation of AKT (pAKT) in T47D cells expressing mutant PI3Ka (H1047R); assay: In vitro cell pAKT (Ser473) HTRF, T47D cells; details: cellular pAKT, T47D cells, mutant PI3Ka (H1047R), 6 hours, read-out: Avg T-47D IC50
# Outline: as §2
EC50 ([1]; 72 hours) [nM],IC50 ([2]; 6 hours) [nM],EC50 ([3]; 72 hours) [nM],IC50 [4] [nM],"EC50 ([1]; Homo sapiens, T47D, 72 h) [nM]","IC50 ([2]; Homo sapiens, SK-BR-3, 6 h) [nM]","EC50 ([3]; Homo sapiens, SK-BR-3, 72 h) [nM]","IC50 ([4]; Homo sapiens, T47D, 6 h) [nM]",SMILES
2000 to 15000,> 15000,> 15000,500 to 2000,,,,,Cc1cc(C(C)Nc2ccccc2C(=O)O)c2cc(C#Cc3cccc(C#N)c3)n(C)c(=O)c2c1 (centres unmarked) [Example 159]
1 to 500,> 15000,> 15000,1 to 500,,,,,Cc1cc([C@@H](C)Nc2ccccc2C(=O)O)c2cc(N3CCN(c4cccc(Cl)c4)CC3)n(C)c(=O)c2c1 [Example 160]
1 to 500,2000 to 15000,2000 to 15000,1 to 500,,,,,Cc1cc([C@@H](C)Nc2ccccc2C(=O)O)c2cc(N3CCN(c4cccc(C#N)c4)CC3)n(C)c(=O)c2c1 [Example 161]
1 to 500,2000 to 15000,> 15000,1 to 500,,,,,Cc1cc([C@@H](C)Nc2ccccc2C(=O)O)c2cc(N3CCN(CC(F)F)CC3)n(C)c(=O)c2c1 [Example 162]
1 to 500,2000 to 15000,2000 to 15000,1 to 500,,,,,Cc1cc([C@@H](C)Nc2ccccc2C(=O)O)c2cc(N3CCC(C)(C#N)CC3)n(C)c(=O)c2c1 [Example 164]
500 to 2000,> 15000,> 15000,1 to 500,,,,,Cc1cc([C@@H](C)Nc2ccccc2C(=O)O)c2cc(N3CC(C)(C#N)C3)n(C)c(=O)c2c1 [Example 165]
500 to 2000,> 15000,> 15000,1 to 500,,,,,Cc1cc(C(C)Nc2ccccc2C(=O)O)c2cc(N3CC4(CCN(CC(F)(F)F)C4)C3)n(C)c(=O)c2c1 (centres unmarked) [Example 171]
1 to 500,> 15000,> 15000,1 to 500,,,,,Cc1cc(C(C)Nc2ccccc2C(=O)O)c2cc(N3CC4(CCN(CC(F)(F)F)CC4)C3)n(C)c(=O)c2c1 (centres unmarked) [Example 172]
,,,,1 to 500,> 15000,2000 to 15000,1 to 500,Cc1cc([C@@H](C)Nc2ccccc2C(=O)O)c2cc(N3CCN(Cc4ccccn4)CC3)n(C)c(=O)c2c1 [Example 175]
,,,,1 to 500,> 15000,2000 to 15000,1 to 500,Cc1cc([C@@H](C)Nc2ccccc2C(=O)O)c2cc(N3CCN(Cc4cccc(C)n4)CC3)n(C)c(=O)c2c1 [Example 176]
,,,,1 to 500,> 15000,> 15000,1 to 500,Cc1cc([C@@H](C)Nc2ccccc2C(=O)O)c2cc(N3CC(C)(c4ccccc4)C3)n(C)c(=O)c2c1 [Example 179]
,,,,1 to 500,> 15000,> 15000,1 to 500,COC1CN(c2cc3c([C@@H](C)Nc4ccccc4C(=O)O)cc(C)cc3c(=O)n2C)C1 [Example 180]
,,,,500 to 2000,> 15000,> 15000,1 to 500,Cc1cc([C@@H](C)Nc2ccccc2C(=O)O)c2cc(N3CC4(CN(CC(F)(F)F)C4)C3)n(C)c(=O)c2c1 [Example 184]
,,,,1 to 500,2000 to 15000,> 15000,1 to 500,Cc1cc([C@@H](C)Nc2ccccc2C(=O)O)c2cc(N3CCC4(CN(CC(F)(F)F)C4)C3)n(C)c(=O)c2c1 [Example 185]
,,,,1 to 500,2000 to 15000,2000 to 15000,1 to 500,Cc1cc([C@@H](C)Nc2ccccc2C(=O)O)c2cc(N3CCN(c4ccccn4)CC3)n(C)c(=O)c2c1 [Example 186]
,,,,1 to 500,> 15000,2000 to 15000,1 to 500,Cc1cc([C@@H](C)Nc2ccccc2C(=O)O)c2cc(N3CCN(c4ccnc(C)n4)CC3)n(C)c(=O)c2c1 [Example 187]
,,,,1 to 500,500 to 2000,2000 to 15000,1 to 500,Cc1cc([C@@H](C)Nc2ccccc2C(=O)O)c2cc(N3CCN(c4cccnc4C#N)CC3)n(C)c(=O)c2c1 [Example 188]
,,,,1 to 500,> 15000,> 15000,1 to 500,Cc1cc([C@@H](C)Nc2ccccc2C(=O)O)c2cc(-c3ccc(OC(F)F)nc3)n(C)c(=O)c2c1 [Example 189]
500 to 2000,> 15000,> 15000,1 to 500,,,,,Cc1cc(C(C)Nc2ccccc2C(=O)O)c2cc(N3CC4C(C3)C4C(F)(F)F)n(C)c(=O)c2c1 (centres unmarked) [Example 191]
,,,,1 to 500,> 15000,> 15000,1 to 500,Cc1cc([C@@H](C)Nc2ccccc2C(=O)O)c2cc(N3CC(F)(c4cccnc4)C3)n(C)c(=O)c2c1 [Example 192]
